According to a melting point compilation (Tetko et al.; mined from patent text by program, amines drawn as free bases though some values may be those of a salt):

Compared with `CCCCCNc1cccc(C(=O)O)c1C(=O)O`, `CCCC(=O)c1ccc(OCCCCCC(=O)O)c(Cl)c1Cl` is lower in melting point: 236 to 238 °C for the first, 94 to 95 °C for the second.

Compared with `COc1cn(-c2cccc(C3=CCOCC3)c2F)nc(-c2ccnn2-c2ccccc2)c1=O`, `Nc1ccc(-n2c(-c3ccccc3)cc3c2CCCC3)cc1C(=O)O` is higher in melting point: 138 to 141 °C for the first, 206 °C for the second.

First: CCSCC(=O)N1CCSC1COc1ccc(OC)cc1 (stereo unspecified)
Second: COc1ccc(CCNCC(O)COc2ccc(-c3nc(-c4cccs4)c[nH]3)cc2)cc1OC (stereo unspecified)
The melting point of the first is lower: 98 to 110 °C for the first, 127 to 129 °C for the second.

Compared with `O=[N+]([O-])c1sc(I)nc1I`, `COC(=O)c1ccc(C(=O)N2CCN(c3ncccc3[N+](=O)[O-])CC2)nc1` is lower in melting point: 135 °C for the first, 129 to 130 °C for the second.

Compared with `CC12CCC(O)CC1=CCC1C2CCC2(C)C(n3cnc4ccccc43)=CCC12` (stereo unspecified), `Cc1c(C(=O)Nc2ccc(N3CCC(N4CCOCC4)CC3)c(C#N)c2)cnn1-c1ccccn1` is higher in melting point: 189 to 190 °C for the first, 251 °C for the second.

First: Cc1cc(Sc2ccccc2)ccc1N
Second: Nc1ccc2c(c1)CC(=O)c1ccccc1O2
The melting point of the first is lower: 64 to 65 °C for the first, 116 to 117 °C for the second.

First: O=C(NC1CCCCC1)NS(=O)(=O)c1ccc(CCNC(=O)N2CC3CCCCC3C2=O)cc1 (stereo unspecified)
Second: CC(C)(C)OC(=O)C(C#N)=C(NCCCN1CCCCCC1=O)Nc1cc(C(F)(F)F)cc(C(F)(F)F)c1
The melting point of the first is lower: 139 to 140 °C for the first, 167 to 168 °C for the second.

First: CCOC(=O)C(C)(C)N1OCC(CSC)=C(c2ccccc2)C1=O
Second: CCCCOC(=O)C(Cl)=Cc1cc(-n2c(=O)cc(C(F)(F)F)n(C)c2=O)ccc1Cl
The melting point of the first is lower: 105 to 106 °C for the first, 109 to 110 °C for the second.

`O=S(=O)(Cc1ccccc1)C1CCN(Cc2ccccc2)CC1` and `CCCCc1nnc(C(=O)N(C)Cc2ccccc2)n1Cc1ccc(-c2ccccc2C#N)cc1` cannot be ordered by melting point: 120 to 121 °C for the first, greater than 40 °C for the second.

First: COC=CC=C(C#N)C#N
Second: CCO/C=C/C(=O)Nc1cccc(Cl)c1OC
The melting point of the first is lower: 74 to 76 °C for the first, 98 to 99 °C for the second.

Compared with `O=C(/C=C/c1ccc(NC(=O)Cc2cccc3ccccc23)cc1)NO`, `O=C(Nc1ccc(N2CCN(C(=O)Nc3ccc(OCCO)cc3C(F)(F)F)CC2)cc1)Nc1ccccc1F` is lower in melting point: 222 to 224 °C for the first, 219 to 220 °C for the second.

Compared with `O=C1CC(=O)NC(c2cccc(Cl)c2)=N1`, `C[C@H](O)[C@@H](CCc1cccc(Cl)c1Cl)n1cnc(C(N)=O)c1` is lower in melting point: 256 to 257 °C for the first, 70 to 75 °C for the second.

First: Cc1ccc(C(=S)c2[nH]c3cc(Cl)ccc3c2N)cc1
Second: NNc1ncc(-c2ccc(F)cc2)nn1
The melting point of the first is lower: 172 to 173 °C for the first, 231 to 235 °C for the second.

First: CC(C)(C(=O)Nc1ccc(Cl)cc1)/C(F)=C\F
Second: CC(=O)Nc1ccc(C(=O)CBr)cc1F
The melting point of the first is lower: 100 °C for the first, 184 °C for the second.

Compared with `CCCCCCCCCCCCCCCCCCOC(=O)CCC(=O)OC1CC(C)(C)N(C)C(C)(C)C1`, `CCCCCNC(=O)C(C)Cc1ccc2c(c1)c(Cc1ccc(C(=O)O)cc1OC)cn2C` (stereo unspecified) is higher in melting point: 38 to 40 °C for the first, 85 to 95 °C for the second.

Compared with `O=C1CCCC(=O)C1C(=O)c1ccc(Cl)c(OCCn2cnnn2)c1Cl`, `Nc1cc(-n2cc(C(=O)O)c(=O)c3cc(F)c(N4CC(N)C4)c(Cl)c32)cnc1Cl` is higher in melting point: 46 to 54 °C for the first, 280 °C for the second.

Compared with `CC1NC(=O)NN=C1c1ccc(NCCCN)cc1` (stereo unspecified), `NC(=O)/C=C1/c2cc(F)ccc2CC1O` (stereo unspecified) is higher in melting point: 178 to 179 °C for the first, 201 to 202 °C for the second.

First: CN1CCC2(OCCO2)C2(CCCC2)C1=O
Second: CC(C)(C)OC(=O)N1CCC[C@@H](O)[C@H](N)C1
The melting point of the first is higher: 84 to 85 °C for the first, 64 to 67 °C for the second.

First: NC(=O)C(=O)NC(C(=O)O)c1ccco1 (stereo unspecified)
Second: CC(=O)c1cc(C(F)(F)F)cc(S(N)(=O)=O)c1
The melting point of the first is higher: 174 °C for the first, 157 to 159 °C for the second.

Compared with `COc1nc2cc(Cl)c(Cl)c(N(CCO)S(C)(=O)=O)c2nc1OC`, `COC(=O)c1cc2cc(OC)c(OCCCl)cc2nc1N=CN(C)C` is lower in melting point: 240 to 242 °C for the first, 108 to 110 °C for the second.

Compared with `C#CCn1cnc2c(N)nc3ccccc3c21`, `N#Cc1csc2ccccc12` is lower in melting point: 220 to 222 °C for the first, 67 to 69 °C for the second.

First: O=C(O)c1cn(-c2cc(F)cc(C(F)(F)F)c2)cn1
Second: O=S(=O)(c1cnn(-c2c(Cl)cc(C(F)(F)F)cc2Cl)c1-n1cccn1)C(F)(F)F
The melting point of the first is higher: greater than 250 °C for the first, 127 to 133 °C for the second.

Compared with `Cc1cc2c(cc1N1CC=CC1)OC(=O)C2C` (stereo unspecified), `CC(=O)NCC1CC(c2cc(F)c(N3CCN(C(=O)CO)CC3)c(F)c2)=NO1` (single isomer, unassigned; (-)) is higher in melting point: 81 to 82 °C for the first, 220 to 221 °C for the second.

Compared with `C=Cc1cnc(C)c(OC(C)=O)c1CSC(C)=O`, `CCOC(=O)C=Cc1cccnc1OCc1ccc(OCc2nc(-c3ccco3)oc2C)c(OC)c1` is higher in melting point: 72 to 73 °C for the first, 85 to 87 °C for the second.

Compared with `OCC(Nc1ncnc2nc[nH]c12)c1ccccc1` (racemic), `O=C(Nc1cccc(-c2ccnc3c(C(=O)c4cccs4)cnn23)c1)OCCCN1CCS(=O)(=O)CC1` is higher in melting point: 130 to 138 °C for the first, 148 to 159 °C for the second.

In the case of `C=CCC(CC=C)n1c(CC)nc2c1c(=O)n(C)c(=O)n2-c1ccc(Cl)cc1Cl`, the melting point is reported as 145 to 146 °C.
